Measurements from patent publication US20150105252A1, “SUBSTITUTED PYRAZOLES AS HERBICIDES” (E I DU PONT DE NEMOURS AND COMPANY, priority 2013, published 2015).

What was measured:
Experiment in all cases: Test C postemergence
crabgrass, large = type: in vivo, Digitaria sanguinalis
From the text: (§1) Seeds of plant species selected from blackgrass (Alopecurus myosuroides), ryegrass, Italian (Italian ryegrass, Lolium multiflorum), wheat (winter wheat, Triticum aestivum), galium (catchweed bedstraw, Galium aparine), corn (Zea mays), crabgrass, large (large crabgrass, Digitaria sanguinalis), foxtail, giant (giant foxtail, Setaria faberii), johnsongrass (Sorghum halepense), lambsquarters (Chenopodium album), morningglory (Ipomoea coccinea), nutsedge, yellow (yellow nutsedge, Cyperus esculentus), pigweed (redroot pigweed, Amaranthus retroflexus), ragweed (common ragweed, Ambrosia elation), soybean (Glycine max), barnyardgrass (Echinochloa crus-galli), oilseed rape (Brassica napus), waterhemp (common waterhemp, Amaranthus rudis), oat, wild (wild oat, Avena fatua), kochia (Kochia scoparia), Surinam grass (Brachiaria decumbens), foxtail, green (green foxtail, Setaria viridis), goosegrass (Eleusine indica), bromegrass, downy (downy bromegrass, Bromus tectorum), nightshade (eastern black nightshade, Solanum ptycanthum), cocklebur (common cocklebur, Xanthium strumarium), cupgrass, woolly (woolly cupgrass, Eriochloa villosa), bermudagrass (Cynodon dactylon), sunflower, (common oilseed sunflower, Helianthus annuus), Russian thistle (Salsola kali), and velvetleaf (Abutilon theophrasti) were planted into a blend of loam soil and sand and treated preemergence with test chemicals formulated in a non-phytotoxic solvent mixture which included a surfactant.
(§2) At the same time, plants selected from these crop and weed species and also chickweed (common chickweed, Stellaria media), canarygrass (littleseed canarygrass, Phalaris minor), and deadnettle (henbit deadnettle, Lamium amplexicaule), were planted in pots containing Redi-Earth® planting medium (Scotts Company, 14111 Scottslawn Road, Marysville, Ohio 43041) comprising spaghnum peat moss, vermiculite, wetting agent and starter nutrients and treated with postemergence applications of test chemicals formulated in the same manner. Plants ranged in height from 2 to 18 cm (1- to 4-leaf stage) for postemergence treatments. Treated plants and controls were maintained in a greenhouse for 13 to 15 days, after which time all species were compared to controls and visually evaluated. Plant response ratings, summarized in Table C, are based on a scale of 0 to 100 where 0 is no effect and 100 is complete control. A dash (-) response means no test result.

oat, wild = type: in vivo, Avena fatua
From the text: as §1, §2

velvetleaf = type: in vivo, Abutilon theophrasti
From the text: as §1, §2

johnsongrass = type: in vivo, Sorghum halepense
From the text: as §1, §2

corn = type: in vivo, Zea mays
From the text: as §1, §2

barnyardgrass = type: in vivo, Echinochloa crus-galli
From the text: as §1, §2

chickweed = type: in vivo, Stellaria media
From the text: as §1, §2

lambsquarters = type: in vivo, Chenopodium album
From the text: as §1, §2

kochia = type: in vivo, Kochia scoparia
From the text: as §1, §2

ragweed = type: in vivo, Ambrosia elation
From the text: as §1, §2

blackgrass = type: in vivo, Alopecurus myosuroides
From the text: as §1, §2

galium = type: in vivo, Galium aparine; settings: for Plant response rating, Galium: postemergence
From the text: as §1, §2

pigweed = type: in vivo, Amaranthus retroflexus
From the text: as §1, §2

wheat = type: in vivo, Triticum aestivum
From the text: as §1, §2

soybean = type: in vivo, Glycine max
From the text: as §1, §2

foxtail, giant = type: in vivo, Setaria faberii
From the text: as §1, §2

ryegrass, Italian = type: in vivo, Lolium multiflorum
From the text: as §1, §2

[1] = Postemergence, 31 g ai/ha, visually evaluated after 13 to 15 days
[2] = postemergence, 62 g ai/ha, scale 0 to 100
[3] = postemergence, 250 g ai/ha, scale 0 to 100 (0 no effect, 100 complete control)
[4] = postemergence, 125 g ai/ha, scale 0 to 100, 0 no effect, 100 complete control

CCc1cc(C(=O)NCC(F)(F)F)nn1Cc1ccnc(C(F)(F)F)c1 [Compound 78, 5-ethyl-N-(2,2,2-trifluoroethyl)-1-[[(2-trifluoromethyl)-4-pyridinyl]methyl]-1H-pyrazole-3-carboxamide]
75: Plant response rating, Velvetleaf (velvetleaf; [3]) | Plant response rating, Johnsongrass (johnsongrass; [3]) | Lambsquarters plant response rating (lambsquarters; [2]) | Ragweed plant response rating (ragweed; [2]) | Pigweed plant response rating (pigweed; [2])
90: Plant response rating, Crabgrass, Large (crabgrass, large; [3]) | Kochia plant response rating (kochia; [2]) | Plant response rating, Kochia (kochia; [3]) | Plant response rating, Kochia (kochia; [4]) | Plant response rating, Pigweed (pigweed; [4])
5: Plant response rating (scale of 0 to 100 where 0 is no effect and 100 is complete control), Oat, Wild (oat, wild; [1]) | Oat, Wild plant response rating (oat, wild; [2]) | Johnsongrass plant response rating (johnsongrass; [2]) | Plant response rating (scale of 0 to 100 where 0 is no effect and 100 is complete control), Barnyardgrass (barnyardgrass; [1]) | Plant response rating (scale of 0 to 100 where 0 is no effect and 100 is complete control), Blackgrass (blackgrass; [1]) | Blackgrass plant response rating (blackgrass; [2]) | Plant response rating (scale of 0 to 100 where 0 is no effect and 100 is complete control), Wheat (wheat; [1]) | Plant response rating (scale of 0 to 100 where 0 is no effect and 100 is complete control), Ryegrass, Italian (ryegrass, Italian; [1]) | Ryegrass, Italian plant response rating (ryegrass, Italian; [2]) | Plant response rating, Ryegrass, Italian (ryegrass, Italian; [4])
60: Plant response rating (scale of 0 to 100 where 0 is no effect and 100 is complete control), Lambsquarters (lambsquarters; [1])
85: Plant response rating, Chickweed (chickweed; [3]) | Plant response rating (scale of 0 to 100 where 0 is no effect and 100 is complete control), Kochia (kochia; [1]) | Plant response rating, Ragweed (ragweed; [4]) | Plant response rating, Soybean (soybean; [3])
35: Plant response rating (scale of 0 to 100 where 0 is no effect and 100 is complete control), Ragweed (ragweed; [1]) | Plant response rating, Wheat (wheat; [3]) | Plant response rating, Ryegrass, Italian (ryegrass, Italian; [3])
40: Plant response rating (scale of 0 to 100 where 0 is no effect and 100 is complete control), Pigweed (pigweed; [1])
80: Plant response rating, Crabgrass, Large (crabgrass, large; [4]) | Plant response rating, Corn (corn; [3]) | Plant response rating, Barnyardgrass (barnyardgrass; [3]) | Chickweed plant response rating (chickweed; [2]) | Plant response rating, Chickweed (chickweed; [4]) | Plant response rating (scale of 0 to 100 where 0 is no effect and 100 is complete control), Galium (galium; [1]) | Plant response rating, Galium (galium; 250 g ai/ha, scale 0 to 100 (0 no effect, 100 complete control)) | Plant response rating, Galium (galium; 125 g ai/ha, scale 0 to 100, 0 no effect, 100 complete control) | Soybean plant response rating (soybean; [2]) | Plant response rating, Soybean (soybean; [4])
98: Plant response rating, Lambsquarters (lambsquarters; [3]) | Plant response rating, Pigweed (pigweed; [3])
10: Plant response rating, Oat, Wild (oat, wild; [4]) | Plant response rating (scale of 0 to 100 where 0 is no effect and 100 is complete control), Corn (corn; [1]) | Plant response rating, Blackgrass (blackgrass; [4]) | Wheat plant response rating (wheat; [2]) | Plant response rating, Wheat (wheat; [4])
95: Plant response rating, Lambsquarters (lambsquarters; [4]) | Plant response rating, Ragweed (ragweed; [3]) | Plant response rating, Foxtail, Giant (foxtail, giant; [3])
50: Plant response rating, Velvetleaf (velvetleaf; [4]) | Plant response rating, Blackgrass (blackgrass; [3]) | Plant response rating (scale of 0 to 100 where 0 is no effect and 100 is complete control), Soybean (soybean; [1]) | Plant response rating, Foxtail, Giant (foxtail, giant; [4])
0: Plant response rating (scale of 0 to 100 where 0 is no effect and 100 is complete control), Johnsongrass (johnsongrass; [1])
15: Plant response rating (scale of 0 to 100 where 0 is no effect and 100 is complete control), Crabgrass, Large (crabgrass, large; [1]) | Plant response rating (scale of 0 to 100 where 0 is no effect and 100 is complete control), Velvetleaf (velvetleaf; [1]) | Corn plant response rating (corn; [2]) | Barnyardgrass plant response rating (barnyardgrass; [2]) | Plant response rating, Barnyardgrass (barnyardgrass; [4]) | Plant response rating (scale of 0 to 100 where 0 is no effect and 100 is complete control), Foxtail, Giant (foxtail, giant; [1])
20: Velvetleaf plant response rating (velvetleaf; [2]) | Foxtail, Giant plant response rating (foxtail, giant; [2])
65: Plant response rating (scale of 0 to 100 where 0 is no effect and 100 is complete control), Chickweed (chickweed; [1])
30: Plant response rating, Oat, Wild (oat, wild; [3])
25: Crabgrass, Large plant response rating (crabgrass, large; [2]) | Plant response rating, Corn (corn; [4])
55: Plant response rating, Johnsongrass (johnsongrass; [4])
